Test results from patent US6846664B2, “Process for the preparation of protease inhibitor using novel alkalothermophilic bacillus sp” (priority 2000, dated 2005).
Ends that are not written are not given here.

Key:
pepsin = pepsin (Homo sapiens, UniProt P0DJD8); assay: Assay of pepsin inhibition (casein substrate, pH 2.0, OD 280 nm); assay type: biochemical; settings: purified RP-HPLC compound
Excerpt: In a feature of the invention, the pepsin inhibitor was selectively purified by removing the high molecular weight compounds from the culture broth by treating it with activated charcoal. The charcoal treated broth was filtered through ultrafiltration membrane and concentrated by lyophilization. The concentrated inhibitor sample was loaded onto a reverse phase-high performance liquid chromatography column using a linear gradient of acetonitrile and triflouroacetate, and the peaks were checked for the inhibitor activity. […] This compound absorbs strongly at 210 nm. The compound was collected and checked as a single purified peptide after loading onto the HPLC column. One unit of inhibitor is defined as the amount of inhibitor which inhibits the protease activity expressed in terms of decrease in optical density of 0.001 per minute.
The protease pepsin was incubated in KC1-HC1 buffer, 0.02 M, pH-2.0, containing the inhibitor in various molar ratios at 37° C. for 30 min. After incubation the residual activity was determined and compared with the controls incubated without the inhibitor.
For example—To 0.05 ml of 100 mg/ml of aqueous solution of pepsin, 0.1 ml of the inhibitor solution was added. […] Precipitated excess casein was removed by filtration after incubation for one hour and the optical density was measured at 280 nm. […]

Alternaria alternata = assay: Antifungal activity assay (mycelial growth / spore germination); assay type: cell-based
Excerpt: (§1) The fungal strains Trichoderma reesei (deposited at The National Collection for Industrial Micro-organisms, Pune India and bearing accession numbers NCIM 992, NCIM 1052- and NCIM 1186), Fusarium oxysporum (bearing accession numbers NCIM 1008, 1043, 1072), Aspergillus flavus (bearing accession numbers NCIM 535, 536, 538, 542), Aspergillus oryzae (bearing accession numbers NCIM 637, 643, 649, 1032), Fusarium moniliforme (bearing accession numbers NCIM 1099, 1100), Alternaria alternata (bearing accession numbers NCIM 887), Claviceps purpurea (bearing accession numbers NCIM 1046), Curvularia fallax (bearing accession numbers NCIM 714), Curvularia lunata (NCIM 716), Curvularia cymbopogonis (bearing accession numbers NCIM 695) and Penicillium fellatanum (bearing accession numbers NCIM 1227) were grown on potato dextrose agar slants for 7-8 days. The said fungal strains have characteristics similar to the strains deposited at American Type Culture Collection, USA and bearing accession number as under: • Trichoderma reesei NCIM 992-ATCC No.13631 • Trichoderma reesei NCIM 1052-ATCC No.24449 • Trichoderma reesei NCIM 1186-ATCC No.26921 Fungal mycelium from the freshly grown culture was inoculated at the centre of petri plates containing potato dextrose agar medium and incubated till they form small circular growth. The time period for the vegetative growth of different fungus is different. On the periphery of the advancing fungal mycelia, four filter paper discs were impregnated at equal distances, with four different concentrations of the inhibitor sample. The plates were incubated at room temperature for 24-48 h to check the crescent zone of the retarded mycelial growth. For sporulating fungus the applicants also had checked the inhibition by spore suspension method. In this method the agar slants were incubated at room temperature till they sporulate. 4 ml of sterile distilled water was added aseptically to the agar slant and the spores were scrapped by using an inoculation loop. 1 ml of this suspension was mixed with 4 ml of malt extract, glucose, yeast extract, peptone media containing 0.4% agarose and poured onto the potato dextrose agar plate. This plate was incubated at room temperature for 4-10 h. Filter paper discs were impregnated and different concentrations of the inhibitor was added onto it. The plates were further incubated at room temperature for 24-48 h and the inhibition zone against the growth was checked. […] The advantages of the Invention are
(§2) Inhibition of growth of fungi by the inhibitor was studied using inhibition assays against mycelial growth and spore germination.
(§3) For example-In case of mycelial growth inhibition assay, fungal mycelium from freshly grown culture was inoculated at the center of potato dextrose agar plate and incubated at 28° C. for 48-72 hours. Sterile filter paper discs impregnated with different concentrations of the inhibitor were placed on the periphery of the growing fungal mycelium. The plates were incubated at 28° C. and the crescent zones of the retarded mycelial growth were observed. In case of inhibition assay against spore-germination, fungal spore suspension was made in malt extract, glucose, yeast extract and peptone (MGYP) liquid medium. To the spore suspension, various concentration of the inhibitor was added. The resulting suspension was incubated at 28° C. for 24 hours. The germination of the spores in presence and absence of the inhibitor were checked under inverted microscope. The minimum inhibitory does MID of several fungal strains are given below in the Table 2.

Aspergillus flavus = assay: as above; assay type: cell-based
Excerpt: as §1, §2, §3

Aspergillus oryzae = assay: as above; assay type: cell-based
Excerpt: as §1, §2, §3

Fusarium moniliforme = assay: as above; assay type: cell-based; settings: 28° C.
Excerpt: as §1, §2, §3

Fusarium oxysporum = assay: as above; assay type: cell-based
Excerpt: as §1, §2, §3

Trichoderma reesei = assay: as above; assay type: cell-based
Excerpt: as §1, §2, §3

Claviceps purpurea = assay: Mycelial growth inhibition, filter paper disc on potato dextrose agar; assay type: cell-based; settings: Claviceps purpurea NCIM 1046; room temperature 24-48 h
Excerpt: as §1, with “are […]” for “are”

Curvularia cymbopogonis = assay: as above; assay type: cell-based; settings: Curvularia cymbopogonis NCIM 695; room temperature 24-48 h
Excerpt: as §1, with “are […]” for “are”

Curvularia fallax = assay: as above; assay type: cell-based; settings: Curvularia fallax NCIM 714; room temperature 24-48 h
Excerpt: as §1, with “are […]” for “are”

Curvularia lunata = assay: as above; assay type: cell-based; settings: Curvularia lunata NCIM 716; room temperature 24-48 h
Excerpt: as §1, with “are […]” for “are”

Sequence of pepsin (P0DJD8 63-388): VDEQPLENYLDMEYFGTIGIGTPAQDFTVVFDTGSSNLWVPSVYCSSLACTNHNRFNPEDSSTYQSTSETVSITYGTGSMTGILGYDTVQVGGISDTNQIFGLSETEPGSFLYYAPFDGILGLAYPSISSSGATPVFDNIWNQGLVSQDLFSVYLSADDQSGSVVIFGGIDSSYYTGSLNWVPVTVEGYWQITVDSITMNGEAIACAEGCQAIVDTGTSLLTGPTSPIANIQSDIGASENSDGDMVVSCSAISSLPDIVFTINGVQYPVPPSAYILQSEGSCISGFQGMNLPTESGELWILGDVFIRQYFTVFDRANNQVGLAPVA

Question: What does the source list for AGKKDDDDPPE [inhibitor]?
Answer: inhibition against pepsin (RP-HPLC peak) (pepsin): showed the inhibition; inhibition of mycelial growth (Alternaria alternata; Altemaria alternata NCIM 887, room temperature 24-48 h): strongly inhibit; MID (minimum inhibitory dose) (Alternaria alternata; Alternaria alternata, 28° C.): 0.582 mg; inhibition of mycelial growth (Aspergillus flavus; Aspergillus flavus NCIM 535, 542, room temperature 24-48 h): strongly inhibit; MID (minimum inhibitory dose) (Aspergillus flavus; Aspergillus flavus, 28° C.): 0.817 mg; inhibition of mycelial growth (Aspergillus oryzae; Aspergillus oryzae NCIM 637, 643, room temperature 24-48 h): strongly inhibit; MID (minimum inhibitory dose) (Aspergillus oryzae; Aspergillus oryzae, 28° C.): 1.147 mg; MID (minimum inhibitory dose) (Fusarium moniliforme): 1.840 mg; inhibition of mycelial growth (Fusarium oxysporum; Fusarium oxysporum NCIM 1008, 1072, room temperature 24-48 h): strongly inhibit; MID (minimum inhibitory dose) (Fusarium oxysporum; Fusarium oxysporum, 28° C.): 2.300 mg; inhibition of mycelial growth (Trichoderma reesei; Trichoderma reesei NCIM 992, 1052, 1186, room temperature 24-48 h): strongly inhibit; MID (minimum inhibitory dose) (Trichoderma reesei; Trichoderma reesei, 28° C.): 0.292 mg; inhibition of mycelial growth (Claviceps purpurea): strongly inhibit; inhibition of mycelial growth (Curvularia cymbopogonis): strongly inhibit; inhibition of mycelial growth (Curvularia fallax): strongly inhibit; inhibition of mycelial growth (Curvularia lunata): strongly inhibit
